In US20260286254A1, “Bleach Catalyst and Composition Comprising Said Catalyst” (Reckitt Benckiser Vanish B.V., priority 2023, published 2026):
Entries after “also recorded” stand apart in the source; their conditions may differ.

Key:
[1] = Stability of bleach catalysts: UV-vis absorbance at 445 nm and appearance of alkaline solutions; format: physicochemical; details: for Absorption at 445 nm, t = 0 / Absorption at 445 nm, t = 48 h: 0.28 mM in 50 wt. % water/50 wt. % acetone; for Absorption at 445 nm, t = 0 / Appearance, t = 0: pH 11, t = 0; for Absorption at 445 nm, t = 48 h / Appearance, t = 48 h: pH 11, t = 48 h; for Appearance, t = 0 / Appearance, t = 48 h: alkaline conditions
Procedure: The stability of bleach catalysts having the structures shown in Table 1 was determined by preparing solutions of these compounds and measuring their UV-vis absorbance. The person skilled in the art will know how to synthesise the catalysts shown below starting from saccharine.
A solution of each compound was prepared by dissolving each compound in a mixture of 50 wt. % water and 50 wt. % acetone. The concentration of each solution was 0.28 mM.
The pH of each solution was set to 11 by adding few drops of a diluted solution of sodium percarbonate to mimic the alkaline conditions of the final formula.
The UV-vis absorption of each solution was measured just after preparing the samples (t=0), then at 2 h and 48 h using a UV-Vis Evolution 220 FC-1135 spectrophotometer using a 2 mm quartz cuvette.

[2] = Kinetic of Tropaeolin-O degradation (UV-Vis absorbance at 430 nm); details: statement in text on Table 5
Procedure: These tests were performed following the procedure described in US2012/0205581 A1. Here, Tropaeolin-O was used as sensor molecule to describe the oxidation kinetic of the different catalysts. The catalytic activity of a bleach catalyst is given by the photocatalytic degradation of tropaeolin-O under visible light irradiation.
The kinetic of tropaeolin-O degradation of each sample was determined by measuring the UV-Vis absorbance of the sample every 60 seconds for a total period of 20 minutes at 430 nm. This was done using a UV-Vis Evolution 220 FC-1135 spectrophotometer.
A base detergent system containing tropaeolin-O was prepared by adding to 1000 mL of demineralized water at 40° C., the following ingredients: • 2.92 g of Ariel Gel (as sold in the UK), • 0.088 g of Tropaeolin-O (purity ex. Sigma and used as received), • 1.75 g of Sodium percarbonate (purity: 13.3 wt. % active oxygen), • 0.10 g of bleach activator tetraacetylethylenediamine (TEAD, purity: 92 wt. % active) […]
The 430 nm absorption peak associated to the decomposition of the sensor molecule, i.e., Tropaeolin-O, after addition of a detergent system was followed over time. […] Absorbance in Table 5 is given in absorbance units (a.u.)

| Absorption at 445 nm, t = 0 [1] | Absorption at 445 nm, t = 48 h [1] | Appearance, t = 0 [1] | Structure (SMILES) | Appearance, t = 48 h [1] | stability of the bleach catalyst, in words [1] | activity / performance (tropaeolin-O decomposition), in words [2] |
| --- | --- | --- | --- | --- | --- | --- |
| <0.05 | 0.07 | Transparent | CCCCCCCCCCCCC1=NS(=O)(=O)c2ccccc21 [Bleach catalyst D, 3-lauryl-1,2-benzisothiazole-1,1-dioxide] | coloured/yellow; also recorded: Yellowing | – | – |
| <0.05 | 0.37 | Transparent | CC1=NS(=O)(=O)c2ccccc21 [Bleach catalyst A, 3-methyl-1,2-benzisothiazole-1,1-dioxide] | coloured/yellow; also recorded: Yellowing | – | – |

Second part, the molecule before the results:

| Structure (SMILES) | Absorption at 445 nm, t = 0 [1] | Absorption at 445 nm, t = 48 h [1] | Appearance, t = 0 [1] | Appearance, t = 48 h [1] | stability of the bleach catalyst, in words [1] | activity / performance (tropaeolin-O decomposition), in words [2] |
| --- | --- | --- | --- | --- | --- | --- |
| O=S1(=O)N=C(c2cccnc2)c2ccccc21 [Bleach catalyst 2, 3-(pyridin-3-yl)-1,2-benzisothiazole-1,1-dioxide] | <0.05 | <0.05 | Transparent | Transparent | stable | enhanced activity |
| CC(C)(C)C1=NS(=O)(=O)c2ccccc21 [Bleach catalyst C, 3-tert-butyl-1,2-benzisothiazole-1,1-dioxide] | <0.05 | <0.05 | Transparent | Transparent | – | – |
| O=S1(=O)N=C(c2ccccn2)c2ccccc21 [Bleach catalyst 1, 3-(pyridin-2-yl)-1,2-benzisothiazole-1,1-dioxide] | <0.05 | <0.05 | Transparent | Transparent | stable | enhanced activity |
| O=S1(=O)N=C(c2ccccc2)c2ccccc21 [Bleach catalyst B, 3-phenyl-1,2-benzisothiazole-1,1-dioxide] | <0.05 | <0.05 | Transparent | Transparent | – | – |
